Laboratory results from publication PMC8230051, “Molecular Cloning and Functional Characterization of Three 5-HT Receptor Genes (HTR1B, HTR1E, and HTR1F) in Chickens” (Genes, 2021).

Assays:
[1] = system: cultured chicken pituitary cells; assay: VIP- or forskolin-stimulated PRL secretion, Western blot; assay type: cell-based; settings: 6 h; for effect on VIP-stimulated PRL secretion: VIP 5 nM; for effect on forskolin-stimulated PRL secretion: forskolin 2 μM
Protocol: As described in the previous experiment, anterior pituitaries were collected from 3-week-old male or female chicks; then, digested by 0.25% trypsin at 37 °C for 30 min. The dispersed pituitary cells were then cultured at a density of 5 × 10^5 cells/well on Corning® CellBIND® 48-well plates (Corning, Lowell, MA, USA) with culture medium 199 (M199, Gibco, Grand Island, NY, USA) containing 10% FBS (Gibco) at 37 °C with 5% CO2. After 18 h of culture, the culture medium was removed, and cells were treated with 120 μL M-199 containing various concentration of 5-HT (0.1 μM) or CP94253 (10 μM) or BRL54443 (10 μM) or LY344864 (10 μM) in the presence of VIP (5 nM) or forskolin (FK, 2 μM). After 6 h of treatment, the culture medium was collected for measurement of PRL secretion, and then pituitary cells were lysed with 1 × passive lysis buffer (Promega) and lysates were collected to examine intracellular PRL and β-actin levels. The protein samples were electrophoresed and transferred to the membrane, and then the standard procedures were used for protein detection. The PRL rabbit polyclonal antibody (1:500) against recombinant full-length chicken PRL were prepared in our laboratory and used to detect the PRL protein levels in our previous study.
Relative PRL levels were calculated as the ratio to the intracellular β-actin level and then expressed as a percentage of control or VIP or forskolin treatment groups. The relative mRNA level of each gene was first calculated as the ratio to that of β-actin and then expressed as fold change compared with the respective control. GraphPad Prism 7 (GraphPad Software Inc, San Diego, California, USA) was used for statistical analysis. Data were analyzed by the unpaired Student’s t-test (for two groups) or by one-way ANOVA, followed by the Dunnett’s test (for comparing treatment groups with control). Data are presented as mean ± SEM.
Figure 8 Western blot showing the effects of various selective agonists ((A): 5-HT; (B): CP94253; (C): BRL54443; (D): LY344864) on VIP (5 nM) or forskolin (FK, 2 μM)-stimulated cPRL secretion in cultured chicken pituitary cells. sPRL represents secretory PRL, and iPRL represents intracellular PRL. Protein levels were semi-quantified by densitometry, β-actin was used as an internal control. For the sPRL analysis, the 5 nM VIP or 2 μM FK treated group was regarded as 100%, while for the iPRL analysis, the control group (without any drug treatment) was regarded as 100%. Different letters indicate statistical difference between two groups (p ≤ 0.01), as determined by one-way ANOVA and a Tukey’s test. Each data point represents the mean ± SEM of three replicates (n = 3).

chicken HTR1E [2] = target: T1, chicken HTR1E (Gallus gallus, UniProt E1BS44); assay: pGL4-SRE-luciferase reporter assay, MAPK/ERK signaling; assay type: cell-based
T1 sequence (E1BS44 1-371): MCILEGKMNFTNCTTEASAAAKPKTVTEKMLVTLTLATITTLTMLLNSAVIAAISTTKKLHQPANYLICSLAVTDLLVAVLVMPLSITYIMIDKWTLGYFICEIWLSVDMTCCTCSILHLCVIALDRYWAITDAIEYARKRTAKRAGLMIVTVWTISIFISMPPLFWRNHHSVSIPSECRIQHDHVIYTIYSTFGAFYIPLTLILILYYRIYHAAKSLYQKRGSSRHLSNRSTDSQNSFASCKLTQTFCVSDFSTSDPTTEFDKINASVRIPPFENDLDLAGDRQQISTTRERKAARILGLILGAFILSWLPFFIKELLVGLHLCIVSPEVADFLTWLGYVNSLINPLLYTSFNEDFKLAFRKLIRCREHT
Text: (§1) According to our previously established methods, chicken HTR1B or HTR1E or HTR1F was transiently expressed in human embryonic kidney 293 (HEK293) cells and treated by 5-HT (10^−11 to 10^−7 M) or HTR1 agonists (CP94253, BRL54443 or LY344864, 10^−11 to 10^−5 M) for six hours. The receptor-activated signaling pathways were then examined by pGL3-CRE-luciferase (capable of monitoring cAMP/PKA signaling pathways) and pGL4-SRE-luciferase reporter systems (capable of monitoring MAPK/ERK signaling pathways). Luminescence was measured by a multimode microplate reader (TriStar LB941, EG&G Berthold, Bad Wildbad, Germany) according to the manufacturer’s instruction.
(§2) HEK293 cells were transiently co-transfected with HTR1 expression plasmid and pGL3-CRE/pGL4-SRE luciferase reporter construct, and subjected to ligand treatment for 6 h before measurement. Effects of 5-HT (A), CP94253 (B), BRL54443 (C), and LY344864 (D) (10^−11–10^−7 M, 6 h) on forskolin (2 μM)-stimulated luciferase activity of HEK293 cells expressing chicken HTR1B, HTR1E, and HTR1F, monitored by a pGL3-CRE luciferase reporter system. Effects of 5-HT (E), CP94253 (F), BRL54443 (G), and LY344864 (H) (10^−11–10^−5 M, 6 h) on luciferase activity of HEK293 cells expressing chicken HTR1B, HTR1E, and HTR1F, monitored by a pGL4-SRE luciferase reporter system. HEK293 cells co-transfected with empty pcDNA3.1(+) and luciferase reporter construct were used as a control. Each data point represents the mean ± SEM of 3 replicates.

chicken HTR1E [3] = target: T1, chicken HTR1E; assay: pGL3-CRE-luciferase reporter assay, inhibition of forskolin-stimulated cAMP/PKA signaling; assay type: cell-based
Text: as §1
(§3) Luciferase reporter assays were performed to determine the signaling properties of HTR1B, HTR1E, and HTR1F using different ligands, including 5-HT (natural ligand), CP94253 (a selective HTR1B agonist), BRL54443 (a selective HTR1E agonist) and LY344864 (a selective HTR1F agonist) respectively. […] Using a pGL3-CRE-luciferase reporter system, the receptor-mediated inhibition of the cAMP/PKA signaling pathway was subsequently monitored as in our previous studies.
as §2

chicken HTR1B [4] = target: T2, chicken HTR1B (Gallus gallus, UniProt D3Y1H8); assay: pGL4-SRE-luciferase reporter assay, MAPK/ERK signaling; assay type: cell-based; settings: HEK293 cells expressing chicken HTR1B, stimulation of luciferase activity, 6 h, table values marked a roughly estimated, read-out: EC50, MAPK/ERK signaling pathway, HTR1B
T2 sequence (D3Y1H8 1-379): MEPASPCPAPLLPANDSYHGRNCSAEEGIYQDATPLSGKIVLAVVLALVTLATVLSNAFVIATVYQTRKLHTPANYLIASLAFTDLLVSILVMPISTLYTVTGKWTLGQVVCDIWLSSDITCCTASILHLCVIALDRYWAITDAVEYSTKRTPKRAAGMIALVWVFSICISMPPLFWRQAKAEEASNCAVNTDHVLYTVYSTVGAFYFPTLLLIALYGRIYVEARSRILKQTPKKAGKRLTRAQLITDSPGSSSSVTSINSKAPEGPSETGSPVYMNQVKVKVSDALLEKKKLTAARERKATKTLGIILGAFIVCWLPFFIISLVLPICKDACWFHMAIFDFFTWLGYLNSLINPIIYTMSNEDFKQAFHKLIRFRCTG
Text: as §1, §2

chicken HTR1B [5] = target: T2, chicken HTR1B; assay: pGL3-CRE-luciferase reporter assay, inhibition of forskolin-stimulated cAMP/PKA signaling; assay type: cell-based; settings: HEK293 cells expressing chicken HTR1B, inhibition of forskolin (2 μM)-stimulated luciferase activity, 6 h, read-out: EC50, cAMP/PKA signaling pathway, HTR1B
Text: as §1, §3, §2

HTR1F = system: HTR1F; set-up: method as in PMID 17715266; settings: in mammals; cited from earlier work
chicken HTR1F [6] = target: T3, chicken HTR1F (Gallus gallus, UniProt A0A4P9IUX1); assay: pGL4-SRE-luciferase reporter assay, MAPK/ERK signaling; assay type: cell-based
T3 sequence (A0A4P9IUX1 entry or part of it): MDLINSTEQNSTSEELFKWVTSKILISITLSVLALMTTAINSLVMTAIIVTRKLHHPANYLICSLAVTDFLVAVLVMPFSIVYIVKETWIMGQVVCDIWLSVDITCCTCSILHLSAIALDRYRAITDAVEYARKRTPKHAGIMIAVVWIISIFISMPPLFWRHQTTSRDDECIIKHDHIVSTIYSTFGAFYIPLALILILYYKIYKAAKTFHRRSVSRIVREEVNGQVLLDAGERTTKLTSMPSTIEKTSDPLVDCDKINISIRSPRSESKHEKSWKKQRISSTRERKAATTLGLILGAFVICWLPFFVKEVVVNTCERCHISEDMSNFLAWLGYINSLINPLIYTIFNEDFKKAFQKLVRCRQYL
Text: as §1, §2

chicken HTR1F [7] = target: T3, chicken HTR1F; assay: pGL3-CRE-luciferase reporter assay, inhibition of forskolin-stimulated cAMP/PKA signaling; assay type: cell-based
Text: as §1, §3, §2

HTR1B = system: HTR1B; set-up: method as in PMID 10936173; settings: human HTR1B stimulated with 5-HT; read-out: EC50, ERK activation; cited from earlier work
human HTR1E receptor = target: human HTR1E receptor; set-up: method as in PMID 14744596; settings: read-out: EC50, stimulation of [35S]GTPγS; cited from earlier work
hens = system: hens; set-up: method as in doi:10.1016/0378-4320(78)90011-8; settings: injection eight hours before the pre-ovulation period; cited from earlier work
[8] = target: guinea pig HTR1E receptor; set-up: method as in PMID 14744596; settings: read-out: EC50, stimulation of [35S]GTPγS; cited from earlier work
chicken HTR1F [9] = target: T3, chicken HTR1F; assay: Western blot of CREB and ERK1/2 phosphorylation in transfected HEK293 cells; assay type: cell-based; settings: HEK293 cells expressing HTR1F, 10 min
Protocol: (§4) HEK293 cells transfected with HTR1B, HTR1E or HTR1F expression plasmid were cultured on a 24-well plate at 37 °C and then treated with 5-HT for 10 min. Then, cells were lysed with 1 × passive lysis buffer (Promega). The phosphorylated ERK1/2 (pERK1/2) and CREB (pCREB) levels in cell lysates were examined by Western blot, as described in our previous studies.
(§5) In addition, Western blots were performed to elucidate these signaling properties of chicken HTR1B, HTR1E, and HTR1F. […] These findings further supported the functional coupling of the three receptors to the cAMP/PKA and MAPK/ERK signaling cascade, in agreement with previous luciferase assay results.
(§6) Figure 5 Western blot showing 5-HT treatment (100 nM, 10min) can inhibit the forskolin (FK) (2 μM)-stimulated phosphorylation levels of CREB (p-CREB) in HEK293 cells expressing chicken HTR1B, HTR1E, and HTR1F (A), and 5-HT treatment (10 μM, 10 min) can enhance phosphorylation of ERK1/2 (p-ERK1/2) in HEK293 cells expressing chicken HTR1B, HTR1E, and HTR1F (B).

chicken HTR1B [10] = target: T2, chicken HTR1B; assay: as above; assay type: cell-based; settings: HEK293 cells expressing HTR1B, 10 min
Protocol: as §4, §5, §6

chicken HTR1E [11] = target: T1, chicken HTR1E; assay: as above; assay type: cell-based; settings: HEK293 cells expressing HTR1E, 10 min
Protocol: as §4, §5, §6

With `CN1CCC(c2c[nH]c3ccc(O)cc23)CC1` [BRL54443, 3-(-1-methylpiperidin-4-yl)-1H-indol-5-ol] the “effect on VIP-stimulated PRL secretion” value ([1]; 10 μM) was “showed no significant effect on VIP-stimulated PRL secretion”, the “effect on forskolin-stimulated PRL secretion” value ([1]; 10 μM) was “showed no significant effect on PRL release” and the EC50 (chicken HTR1E [2]) was 28.8 nM. For the same compound, the EC50 (chicken HTR1E [3]) was 2.4 nM.

For `CCCOc1ccc2[nH]cc(C3=CCNCC3)c2n1` [CP94253], the “effect on VIP-stimulated PRL secretion” value ([1]; 10 μM) was “showed no significant effect on VIP-stimulated PRL secretion”, the “effect on forskolin-stimulated PRL secretion” value ([1]; 10 μM) was “showed no significant effect on PRL release” and the EC50 (chicken HTR1B [4]) was over 200 nM. For the same compound, the EC50 (chicken HTR1B [5]) was 4 nM.

For `CN(C)[C@@H]1CCc2[nH]c3ccc(NC(=O)c4ccc(F)cc4)cc3c2C1` [LY344864], the “affinity for HTR1F relative to HTR1A, HTR1B, HTR1D, and HTR1E” value (HTR1F) is given as ~ 100 fold, the “pKd for HTR1F” value (HTR1F) is given as 8.2 and the “effect on VIP-stimulated PRL secretion” value ([1]; 10 μM) is given as “could significantly inhibit VIP-stimulated PRL secretion”. For the same compound, the “effect on forskolin-stimulated PRL secretion” value ([1]; 10 μM) was “could significantly inhibit PRL secretion”, the EC50 (chicken HTR1F [6]; HEK293 cells expressing chicken HTR1F, pGL4-SRE-luciferase, stimulation of luciferase activity, 6 h, table values marked a roughly estimated, read-out: EC50, MAPK/ERK signaling pathway, HTR1F) was over 200 nM and the EC50 (chicken HTR1F [7]; HEK293 cells expressing chicken HTR1F, pGL3-CRE-luciferase, inhibition of forskolin (2 μM)-stimulated luciferase activity, 6 h, read-out: EC50, cAMP/PKA signaling pathway, HTR1F) was 1.8 nM.

For `NCCc1c[nH]c2ccc(O)cc12` [5-HT, 5-hydroxytryptamine], the “effect on VIP-stimulated PRL secretion” value ([1]; 0.1 μM) is listed as “showed no significant effect on VIP-stimulated PRL secretion”, the “effect on forskolin-stimulated PRL secretion” value ([1]; 0.1 μM) is listed as “showed no significant effect on PRL release” and the EC50 (HTR1B) is listed as […]. The EC50 (human HTR1E receptor) was […], the ovulation failure (hens) was 90 % of hens and the EC50 (chicken HTR1F [6]) was over 500 nM. For the same compound, the EC50 (chicken HTR1B [4]) was over 800 nM, the EC50 (chicken HTR1E [2]) was over 100 nM and the EC50 [8] was 13.6 ± 1.92 nM. The EC50 (chicken HTR1F [7]) was 5.7 nM, the EC50 (chicken HTR1B [5]) was 8 nM and the EC50 (chicken HTR1E [3]) was 9.3 nM. The “effect on forskolin-stimulated CREB phosphorylation” value (chicken HTR1F [9]; 100 nM, forskolin 2 μM) was “could inhibit forskolin (2 μM)-stimulated CREB phosphorylation”, the “effect on ERK1/2 phosphorylation” value (chicken HTR1F [9]; 10 μM) was “could enhance ERK1/2 (44/42 kDa) phosphorylation” and the “effect on forskolin-stimulated CREB phosphorylation” value (chicken HTR1B [10]; 100 nM, forskolin 2 μM) was “could inhibit forskolin (2 μM)-stimulated CREB phosphorylation”. For the same compound, the “effect on ERK1/2 phosphorylation” value (chicken HTR1B [10]; 10 μM) was “could enhance ERK1/2 (44/42 kDa) phosphorylation”, the “effect on forskolin-stimulated CREB phosphorylation” value (chicken HTR1E [11]; 100 nM, forskolin 2 μM) was “could inhibit forskolin (2 μM)-stimulated CREB phosphorylation” and the “effect on ERK1/2 phosphorylation” value (chicken HTR1E [11]; 10 μM) was “could enhance ERK1/2 (44/42 kDa) phosphorylation”.
